The text below walks through data of US10669272B2, “Substituted naphthyridinone compounds useful as T cell activators” (BRISTOL-MYERS SQUIBB COMPANY, priority 2018, dated 2020).

For orientation: IC50 means the concentration that inhibits the measured activity by half. One may read the EC50 as the concentration at which the effect is half-maximal.

Each structure is given as a SMILES string. Read-outs that look alike come from different tables or passages of the source.

One assay concerns the target T1, human DGKζ (Homo sapiens, UniProt Q13574).
T1 construct: TVMV protease cleavage site (C); Hexa-His (C); made in house; host or cells: Sf9 insect cells (baculovirus, Bac-to-Bac)
The assay can be described thus: DGKζ LIPGLO assay (extruded liposome substrate), in vitro DGK inhibition. As to conditions: liposome (LIPGLO) assay; read-out: DGKz LIPGLO IC50. The format is biochemical.

The next assay concerns the target T2, human DGKα (Homo sapiens, UniProt P23743).
T2 construct: TVMV protease cleavage site (C); Hexa-His (C); made in house; host or cells: Sf9 insect cells (baculovirus, Bac-to-Bac)
The assay can be described thus: DGKα LIPGLO assay (extruded liposome substrate), in vitro DGK inhibition. As to conditions: liposome (LIPGLO) assay; read-out: DGKa LIPGLO IC50. The assay is classed as biochemical.

For a further assay, the system named is naïve human CD8 T cells. The assay can be described thus: Human CD8 T cells IFN-γ assay.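 Also: Naïve human CD8 T cells stimulated with plate-bound anti-CD3 and soluble anti-CD28, IFN-γ in supernatant quantified by AlphaLISA and converted to pg/mL.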 The format is cell-based. Particulars: normalized to 3 μM reference compound with anti-CD3 plus anti-CD28 as 100% activation, read-out: HuCD8 INFG Normalized EC50.

T1 sequence (Q13574 with tags, fused parts or gaps isoform Q13574-4): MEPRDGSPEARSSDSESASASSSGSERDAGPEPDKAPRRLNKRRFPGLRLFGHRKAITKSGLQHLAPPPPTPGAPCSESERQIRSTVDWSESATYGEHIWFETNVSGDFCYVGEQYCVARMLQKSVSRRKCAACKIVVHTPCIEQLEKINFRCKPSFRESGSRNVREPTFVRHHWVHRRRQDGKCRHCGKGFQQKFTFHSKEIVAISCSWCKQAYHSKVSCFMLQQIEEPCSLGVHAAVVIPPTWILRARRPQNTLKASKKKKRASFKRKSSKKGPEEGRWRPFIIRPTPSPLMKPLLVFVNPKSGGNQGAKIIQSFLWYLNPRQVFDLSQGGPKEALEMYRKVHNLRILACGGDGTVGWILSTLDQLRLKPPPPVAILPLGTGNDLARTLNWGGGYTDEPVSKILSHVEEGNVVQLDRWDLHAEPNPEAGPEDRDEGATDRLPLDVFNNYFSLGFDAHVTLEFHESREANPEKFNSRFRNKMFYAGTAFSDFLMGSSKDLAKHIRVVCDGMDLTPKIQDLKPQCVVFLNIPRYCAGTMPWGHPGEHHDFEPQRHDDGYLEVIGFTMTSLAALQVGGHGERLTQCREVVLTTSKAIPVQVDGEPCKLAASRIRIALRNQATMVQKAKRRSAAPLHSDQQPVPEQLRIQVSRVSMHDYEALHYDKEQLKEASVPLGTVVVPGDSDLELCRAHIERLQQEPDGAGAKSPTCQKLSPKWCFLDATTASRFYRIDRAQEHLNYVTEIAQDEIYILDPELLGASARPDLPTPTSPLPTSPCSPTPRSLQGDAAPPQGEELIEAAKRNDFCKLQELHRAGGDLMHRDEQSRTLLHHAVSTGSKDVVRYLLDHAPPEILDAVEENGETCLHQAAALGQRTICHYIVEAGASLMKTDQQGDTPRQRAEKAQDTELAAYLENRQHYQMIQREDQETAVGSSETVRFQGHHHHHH
T2 sequence (P23743 with tags, fused parts or gaps): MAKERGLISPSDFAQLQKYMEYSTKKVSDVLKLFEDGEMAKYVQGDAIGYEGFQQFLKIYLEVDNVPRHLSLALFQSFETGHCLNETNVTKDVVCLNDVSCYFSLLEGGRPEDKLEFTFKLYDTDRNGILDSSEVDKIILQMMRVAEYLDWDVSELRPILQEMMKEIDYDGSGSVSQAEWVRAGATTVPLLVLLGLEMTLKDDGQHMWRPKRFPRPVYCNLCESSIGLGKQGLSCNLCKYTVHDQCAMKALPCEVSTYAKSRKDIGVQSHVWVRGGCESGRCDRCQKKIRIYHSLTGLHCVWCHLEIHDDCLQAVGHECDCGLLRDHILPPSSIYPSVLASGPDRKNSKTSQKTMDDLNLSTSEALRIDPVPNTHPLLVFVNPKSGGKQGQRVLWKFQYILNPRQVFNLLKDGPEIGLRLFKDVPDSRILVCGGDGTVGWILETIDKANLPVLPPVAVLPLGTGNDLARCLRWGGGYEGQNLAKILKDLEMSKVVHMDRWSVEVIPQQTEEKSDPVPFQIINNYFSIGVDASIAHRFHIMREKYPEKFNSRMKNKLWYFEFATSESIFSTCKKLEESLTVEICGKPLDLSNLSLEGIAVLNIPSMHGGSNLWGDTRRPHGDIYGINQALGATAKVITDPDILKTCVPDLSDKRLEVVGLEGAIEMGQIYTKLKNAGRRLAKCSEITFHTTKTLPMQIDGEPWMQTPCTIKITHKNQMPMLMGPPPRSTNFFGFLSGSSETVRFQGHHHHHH
Procedure for naïve human CD8 T cells: Human CD8 T Cells IFN-γ Assay
Frozen naïve human CD8 T cells were thawed in AIM-V media, incubated for 2 h in 37° C., and counted. The 384-well tissue culture plate was coated overnight at 4° C. with 20 μL anti-human CD3 at 0.05 μg/mL in PBS, which was removed off the plate before 40,000 cells per 40 microliters CD8 T cells with 0.1 μg/mL soluble anti-human CD28 were added to each well. The compounds were transferred using an Echo liquid handler to the cell plate immediately after the cells were plated. After 20 h incubation at 37° C. incubator, 3 microliters per well supernatants transferred into a new 384-well white assay plate for cytokine measurement.
Interferon-γ (IFN-γ) was quantitated using the AlphLISA kit (Cat # AL217) as described by the manufacturer manual (Perkin Elmer). The counts from each well were converted to IFN-γ concentration (pg/mL).

As for `Cn1c(=O)cc(N2CCN(C(c3ccc(F)cc3)c3ccc(F)cc3)CC2CF)c2nc(C#N)ccc21` (single isomer, unassigned) [Example 151, 8-(4-(bis(4-fluorophenyl)methyl)-2-(fluoromethyl)piperazin-1-yl)-5-methyl-6-oxo-5,6-dihydro-1,5-naphthyridine-2-carbonitrile], the results for the IC50 at human DGKζ and at human DGKα were 8.8 µM and 3.6 µM, respectively. Also, the concentration for a half-maximal effect (EC50) in the assay with naïve human CD8 T cells is 0.15 µM.
Take `COc1cc(F)ccc1C(c1ccc(F)cc1)N1C[C@H](C)N(c2c(C#N)c(=O)n(C)c3ccc(C#N)nc23)C[C@H]1C` (single isomer, unassigned) [Example 111]: the IC50 turned out to be 1.6 µM on human DGKζ and 62 µM at human DGKα. Also, in the assay on naïve human CD8 T cells (Homo sapiens, T-cell, 20 h), the EC50 stood at 0.073 µM.
The matching figures for `C[C@@H]1CN(c2cc(=O)n(C)c3ccc(C#N)nc23)[C@@H](C)CN1Cc1c(F)cc(C#N)cc1F` [Example 267, 8-[(2S,5R)-4-[(4-cyano-2,6-difluorophenyl)methyl]-2,5-dimethylpiperazin-1-yl]-5-methyl-6-oxo-5,6-dihydro-1,5-naphthyridine-2-carbonitrile]: 1.6 µM, 0.39 µM and 10 µM.
The matching figures for `C[C@@H]1CN(c2cc(=O)n(C)c3ccc(C#N)nc23)[C@@H](C)CN1C(c1ccccc1)c1ccccc1` [Example 237, 8-[(2S,5R)-4-(diphenylmethyl)-2,5-dimethylpiperazin-1-yl]-5-methyl-6-oxo-5,6-dihydro-1,5-naphthyridine-2-carbonitrile]: 1.4 µM, 0.93 µM and 0.039 µM.
As to `COC(=O)C1CN(c2c(F)c(=O)n(C)c3ccc(C#N)nc23)CCN1C(c1ccc(Cl)cc1)c1ccc(Cl)cc1` (single isomer, unassigned) [Example 95, methyl 1-(bis(4-chlorophenyl)methyl)-4-(6-cyano-3-fluoro-1-methyl-2-oxo-1,2-dihydro-1,5-naphthyridin-4-yl)piperazine-2-carboxylate], the IC50 on human DGKζ worked out at 0.76 µM; on human DGKα, 2.6 µM. In the assay with naïve human CD8 T cells, the EC50 is 0.021 µM.
In the same order, the values of `Cn1c(=O)cc(N2CCN(C(c3ccc(F)cc3)c3ccc(F)cc3)CC2C(=O)NC2CC2)c2nc(C#N)ccc21` (single isomer, unassigned) [Example 140, 4-(bis(4-fluorophenyl)methyl)-1-(6-cyano-1-methyl-2-oxo-1,2-dihydro-1,5-naphthyridin-4-yl)-N-cyclopropylpiperazine-2-carboxamide] are 25 µM, 150 µM and 6.6 µM.
For `Cn1c(=O)cc(N2CCN(C(c3ccc(F)cc3)c3ccc(F)cc3)CC2C(N)=O)c2nc(C#N)ccc21` (single isomer, unassigned) [Example 142, 4-(bis(4-fluorophenyl)methyl)-1-(6-cyano-1-methyl-2-oxo-1,2-dihydro-1,5-naphthyridin-4-yl)piperazine-2-carboxamide], the IC50 on human DGKζ was found to be 65 µM; on human DGKα, 40 µM. Besides, in the assay on naïve human CD8 T cells (Homo sapiens, T-cell, 20 h), the EC50 turned out to be 10 µM.
The matching figures for `Cn1c(=O)c(C#N)c(N2CCN(C(c3ccc(F)cc3)c3ccc(F)cc3)CC2CO)c2nc(Br)ccc21` (stereo not drawn) [Example 118, 4-(4-(bis(4-fluorophenyl)methyl)-2-(hydroxymethyl)piperazin-1-yl)-6-bromo-1-methyl-2-oxo-1,2-dihydro-1,5-naphthyridine-3-carbonitrile]: 63 µM, 10 µM and 0.71 µM.
The matching figures for `C[C@@H]1CN(c2c(C#N)c(=O)n(C)c3ccc(Br)nc23)[C@@H](C)CN1C(c1ccc(F)cc1)c1ccc(F)cc1` [Example 158, 4-((2S,5R)-4-(bis(4-fluorophenyl)methyl)-2,5-dimethylpiperazin-1-yl)-6-bromo-1-methyl-2-oxo-1,2-dihydro-1,5-naphthyridine-3-carbonitrile]: 13 µM, 3.6 µM and 0.11 µM.
The matching figures for `Cn1c(=O)c(C#N)c(N2CCN(C(c3ccc(F)cc3)c3ccc(F)cc3)C(C(=O)O)C2)c2nc(C#N)ccc21` (single isomer, unassigned) [Example 53, 1-(bis(4-fluorophenyl)methyl)-4-(3,6-dicyano-1-methyl-2-oxo-1,2-dihydro-1,5-naphthyridin-4-yl)piperazine-2-carboxylic acid]: 94 µM, 140 µM and 10 µM.
Take `CC(C)OC(=O)C1CN(c2cc(=O)n(C)c3ccc(C#N)nc23)CCN1C(c1ccc(F)cc1)c1ccc(F)cc1` (single isomer, unassigned) [Example 62, Isopropyl 1-(bis(4-fluorophenyl)methyl)-4-(6-cyano-1-methyl-2-oxo-1,2-dihydro-1,5-naphthyridin-4-yl)piperazine-2-carboxylate]: the results for the IC50 on human DGKζ and on human DGKα were 15 µM and 240 µM, respectively. The EC50 in the assay with naïve human CD8 T cells amounted to 1.8 µM.
As to `Cn1c(=O)cc(N2CCN(C(c3ccc(F)cc3)c3ccc(F)cc3)CC2CF)c2nc(C#N)ccc21` (single isomer, unassigned) [Example 150, 8-(4-(bis(4-fluorophenyl)methyl)-2-(fluoromethyl)piperazin-1-yl)-5-methyl-6-oxo-5,6-dihydro-1,5-naphthyridine-2-carbonitrile], the values for the IC50 at human DGKζ and at human DGKα were 29 µM and 240 µM, respectively. Besides, in the assay with naïve human CD8 T cells, the EC50 worked out at 10 µM.
Turning to `Cn1c(=O)c(C#N)c(N2CCN(C(c3ccc(F)cc3)c3ccc(F)cc3)C(C(N)=O)C2)c2nc(C#N)ccc21` (single isomer, unassigned) [Example 57, 1-(bis (4-fluorophenyl)methyl)-4-(3,6-dicyano-1-methyl-2-oxo-1,2-dihydro-1,5-naphthyridin-4-yl)piperazine-2-carboxamide], the IC50 came out at 140 µM on human DGKζ and 52 µM at human DGKα. Besides, in the assay on naïve human CD8 T cells (Homo sapiens, T-cell, 20 h), the 50% effective concentration (EC50) turned out to be 6 µM.
The matching figures for `Cn1c(=O)cc(N2CCN(C(c3ccc(F)cc3)c3ccc(F)cc3)CC2C(=O)O)c2nc(C#N)ccc21` (stereo not drawn) [Example 138, 4-(bis(4-fluorophenyl)methyl)-1-(6-cyano-1-methyl-2-oxo-1,2-dihydro-1,5-naphthyridin-4-yl)piperazine-2-carboxylic acid]: 95 µM, 82 µM and 10 µM.
`Cn1c(=O)cc(N2CCN(C(c3ccc(F)cc3)c3ccc(F)cc3)C(C(=O)NC3CC3)C2)c2nc(C#N)ccc21` (single isomer, unassigned) [Example 48, 1-(bis(4-fluorophenyl)methyl)-4-(6-cyano-1-methyl-2-oxo-1,2-dihydro-1,5-naphthyridin-4-yl)-N-cyclopropylpiperazine-2-carboxamide]: the IC50 on human DGKζ was determined as 20 µM; on human DGKα, 240 µM. The EC50 in the assay on naïve human CD8 T cells came out at 3.8 µM.
The matching figures for `Cn1c(=O)cc(N2CCN(C(c3ccc(F)cc3)c3ccc(F)cc3)CC2CO)c2nc(C#N)ccc21` (single isomer, unassigned) [Example 147, 8-(4-(bis(4-fluorophenyl)methyl)-2-(hydroxymethyl)piperazin-1-yl)-5-methyl-6-oxo-5,6-dihydro-1,5-naphthyridine-2-carbonitrile]: 15 µM, 48 µM and 2 µM.
For `Cn1c(=O)cc(N2CCN(C(c3ccc(F)cc3)c3ccc(F)cc3)C(C)(C)C2)c2nc(C#N)ccc21` [Example 171, 8-(4-(bis(4-fluorophenyl)methyl)-3,3-dimethylpiperazin-1-yl)-5-methyl-6-oxo-5,6-dihydro-1,5-naphthyridine-2-carbonitrile], the figures for the IC50 on human DGKζ and on human DGKα were 94 µM and 0.24 µM, respectively. Moreover, in the assay on naïve human CD8 T cells (Homo sapiens, T-cell, 20 h), the concentration for a half-maximal effect (EC50) was 10 µM.
Take `Cn1c(=O)c(C#N)c(N2CCN(C(c3ccc(F)cc3)c3ccc(F)cc3)C(C(=O)NC3CC3)C2)c2nc(C#N)ccc21` (single isomer, unassigned) [Example 61, 1-(bis(4-fluorophenyl)methyl)-N-cyclopropyl-4-(3,6-dicyano-1-methyl-2-oxo-1,2-dihydro-1,5-naphthyridin-4-yl)piperazine-2-carboxamide]: the IC50 was 170 µM on human DGKζ and 240 µM at human DGKα. In the assay on naïve human CD8 T cells, the EC50 is 10 µM.
Turning to `Cn1c(=O)c(C#N)c(N2CCN(C(c3ccc(F)cc3)c3ccc(F)cc3)C(CO)C2)c2nc(Br)ccc21` (stereo not drawn) [Example 17, 4-(4-(bis(4-fluorophenyl)methyl)-3-(hydroxymethyl)piperazin-1-yl)-6-bromo-1-methyl-2-oxo-1,2-dihydro-1,5-naphthyridine-3-carbonitrile], the concentration for half-maximal inhibition (IC50) at human DGKζ was found to be 19 µM; at human DGKα, 2.3 µM. The EC50 with naïve human CD8 T cells (Homo sapiens, T-cell, 20 h) worked out at 6.5 µM.
As for `COc1ccc2c(n1)c(N1C[C@@H](C)N(C(c3ccccc3)c3ccc(F)cc3)C[C@@H]1C)cc(=O)n2C` (single isomer, unassigned) [Example 239], the IC50 on human DGKζ came to 64 µM; at human DGKα, 5.9 µM. Also, the EC50 in the assay on naïve human CD8 T cells stood at 10 µM.
`COc1ccc2c(n1)c(N1C[C@@H](C)N(C(c3ccc(F)cc3)c3ccc(Cl)cc3)C[C@@H]1C)cc(=O)n2C` (stereo partly drawn) [Example 240, 4-[(2S,5R)-4-[(4-chlorophenyl)(4-fluorophenyl)methyl]-2,5-dimethylpiperazin-1-yl]-6-methoxy-1-methyl-1,2-dihydro-1,5-naphthyridin-2-one]: the values for the IC50 on human DGKζ and at human DGKα were 20 µM and 15 µM, respectively. For the same molecule, the EC50 in the assay with naïve human CD8 T cells (Homo sapiens, T-cell, 20 h) is 12 µM.
For `C[C@@H]1CN(C(c2ccc(F)cc2)c2ccc(F)cc2)[C@@H](C)CN1c1c(C#N)c(=O)n(C)c2ccc(C#N)nc12` [Example 6, 8-((2R,5S)-4-(bis(4-fluorophenyl)methyl)-2,5-dimethylpiperazin-1-yl)-5-methyl-6-oxo-5,6-dihydro-1,5-naphthyridine-2,7-dicarbonitrile], the 50% inhibitory concentration (IC50) amounted to 16 µM at human DGKζ and 25 µM on human DGKα. Moreover, the EC50 in the assay on naïve human CD8 T cells (Homo sapiens, T-cell, 20 h) was 0.56 µM.
